In one experiment the test system is 20032 (donor line of iPSC-derived cardiomyocytes). Kind of experiment: POD (EC05) for increase in beat frequency (positive chronotrope) vs vehicle; higher = less potent (higher point of departure). The settings on record: exposure time: 90 min. On the procedure:
(§1)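 Human iPSC-derived cardiomyocytes from 16 donors were exposed for 90 min at 37 °C to each PFAS at 0.1, 1, 10 and 100 µM in 0.5% DMSO, 384-well plates. Kinetic Ca2+ flux (FLIPR) and Hoechst nuclei counts were normalised to vehicle wells and fitted with a hierarchical Bayesian Hill model to give donor-specific PODs: EC05 for beat-rate increase or decrease and for decay-to-rise ratio increase (QT proxy), EC95 for peak-frequency loss (asystole), EC10 for total cell number loss. 0.03 µM is the lower bound.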
The molecule `O=C(O)CCC(F)(F)C(F)(F)C(F)(F)C(F)(F)C(F)(F)C(F)(F)C(F)(F)F` [3-Perfluoroheptylpropanoic_acid] registered a POD vs vehicle greater than 100 µM.

`O=C(O)CCC(F)(F)C(F)(F)C(F)(F)F` [3:3 Fluorotelomer carboxylic acid] yielded a POD vs vehicle greater than 100 µM.

Consider `O=C(CC(=O)C(F)(F)C(F)(F)F)C(F)(F)F` [3H,3H-Perfluoro-2,4-hexanedione], for which the POD vs vehicle was greater than 100 µM.

For the molecule `OCCC(F)(F)C(F)(F)C(F)(F)C(F)(F)F` [4:2 Fluorotelomer alcohol], the POD vs vehicle is greater than 100 µM.

In turn, `O=S(=O)(O)CCC(F)(F)C(F)(F)C(F)(F)C(F)(F)F` [4:2 Fluorotelomer sulfonic acid] came in with a POD vs vehicle greater than 100 µM.

With `O=C([O-])C(F)(F)C(F)(F)C(F)(F)C(F)(F)C(F)(F)C(F)(F)C(F)(F)F.[NH4+]` [Ammonium_perfluorooctanoate], the POD vs vehicle was greater than 100 µM.

`OCC(F)(F)OC(F)(F)C(F)(F)OC(F)(F)C(F)(F)OC(F)(F)F` [Fluorinated_triethylene_glycol_monomethyl_ether] registered a POD vs vehicle greater than 100 µM.

For `CN(CCO)S(=O)(=O)C(F)(F)C(F)(F)C(F)(F)C(F)(F)C(F)(F)C(F)(F)C(F)(F)C(F)(F)F` [N-Methyl-N-(2-hydroxyethyl)perfluorooctanesulfonamide], the POD vs vehicle is 0.199 µM.

In turn, `O=S(=O)(O)C(F)(F)C(F)(F)C(F)(F)C(F)(F)F` [Perfluorobutanesulfonic_acid] yielded a POD vs vehicle greater than 100 µM.

`O=C(O)C(F)(F)C(F)(F)C(F)(F)C(F)(F)C(F)(F)C(F)(F)C(F)(F)C(F)(F)C(F)(F)C(F)(F)F` [Perfluoroundecanoic_acid] gave a POD vs vehicle greater than 100 µM.

A further experiment deals with 20084 (donor line of iPSC-derived cardiomyocytes). Described as above. The settings on record: exposure time: 90 min. On the procedure:
as §1
As to `NC(=O)C(F)(F)C(F)(F)C(F)(F)C(F)F`, the POD vs vehicle was greater than 100 µM.

On to `OCC(O)CC(F)(F)C(F)(F)C(F)(F)C(F)(F)C(F)(F)C(F)(F)C(F)(F)C(F)(F)F` (centres undefined) [1-(Perfluorofluorooctyl)propane-2,3-diol], for which the POD vs vehicle was greater than 100 µM.

As for `CC(O)C(F)(F)C(F)(F)F` (centres undefined) [1-Pentafluoroethylethanol], the POD vs vehicle was greater than 100 µM.

In turn, `OCC(F)(F)C(F)(F)C(F)(F)C(F)F` [1H,1H,5H-Perfluoropentanol] showed a POD vs vehicle greater than 100 µM.

`O=S(=O)(OCC(F)(F)F)C(F)(F)C(F)(F)C(F)(F)C(F)(F)F` [2,2,2-Trifluoroethyl_perfluorobutanesulfonate] returned a POD vs vehicle greater than 100 µM.

The molecule `O=C(O)C(F)(F)C(F)(F)C(F)F` [2,2,3,3,4,4-Hexafluorobutanoic_acid] returned a POD vs vehicle greater than 100 µM.

Molecule `NC(O)(C(F)(F)F)C(F)(F)F` [2-Aminohexafluoropropan-2-ol] displayed a POD vs vehicle greater than 100 µM.

The molecule `O=C(O)CCC(F)(F)C(F)(F)C(F)(F)C(F)(F)C(F)(F)F` [2H,2H,3H,3H-Perfluorooctanoic_acid] yielded a POD vs vehicle greater than 100 µM.

Molecule `O=C(O)C=C(C(F)(F)F)C(F)(F)F` [3,3-Bis(trifluoromethyl)-2-propenoic_acid] showed a POD vs vehicle greater than 100 µM.

Molecule `O=C(O)C=CC(F)(C(F)(F)F)C(F)(F)F` [3-(Perfluoroisopropyl)-2-propenoic_acid] returned a POD vs vehicle greater than 100 µM.

In turn, `O=C(O)CCC(F)(F)C(F)(F)C(F)(F)C(F)(F)C(F)(F)C(F)(F)C(F)(F)F` [3-Perfluoroheptylpropanoic_acid] registered a POD vs vehicle greater than 100 µM.

Take `O=C(O)CCC(F)(F)C(F)(F)C(F)(F)F` [3:3 Fluorotelomer carboxylic acid]: the POD vs vehicle was greater than 100 µM.

As for `O=C(CC(=O)C(F)(F)C(F)(F)F)C(F)(F)F` [3H,3H-Perfluoro-2,4-hexanedione], the POD vs vehicle was greater than 100 µM.

In turn, `OCCC(F)(F)C(F)(F)C(F)(F)C(F)(F)F` [4:2 Fluorotelomer alcohol] yielded a POD vs vehicle greater than 100 µM.

In the case of `O=S(=O)(O)CCC(F)(F)C(F)(F)C(F)(F)C(F)(F)F` [4:2 Fluorotelomer sulfonic acid], the POD vs vehicle was greater than 100 µM.

For the molecule `O=C([O-])C(F)(F)C(F)(F)C(F)(F)C(F)(F)C(F)(F)C(F)(F)C(F)(F)F.[NH4+]` [Ammonium_perfluorooctanoate], the POD vs vehicle was greater than 100 µM.

For `OCC(F)(F)OC(F)(F)C(F)(F)OC(F)(F)C(F)(F)OC(F)(F)F` [Fluorinated_triethylene_glycol_monomethyl_ether], the POD vs vehicle is greater than 100 µM.

On to `CN(CCO)S(=O)(=O)C(F)(F)C(F)(F)C(F)(F)C(F)(F)C(F)(F)C(F)(F)C(F)(F)C(F)(F)F` [N-Methyl-N-(2-hydroxyethyl)perfluorooctanesulfonamide], for which the POD vs vehicle was greater than 100 µM.

As for `O=S(=O)(O)C(F)(F)C(F)(F)C(F)(F)C(F)(F)F` [Perfluorobutanesulfonic_acid], the POD vs vehicle was greater than 100 µM.

Take `O=C(O)C(F)(F)C(F)(F)C(F)(F)C(F)(F)C(F)(F)C(F)(F)C(F)(F)C(F)(F)C(F)(F)C(F)(F)F` [Perfluoroundecanoic_acid]: the POD vs vehicle was greater than 100 µM.

Another experiment deals with 30171 (donor line of iPSC-derived cardiomyocytes). The experiment is described as above. The settings on record: exposure time: 90 min. On the procedure:
as §1
The molecule `NC(=O)C(F)(F)C(F)(F)C(F)(F)C(F)F` had a POD vs vehicle greater than 100 µM.

The molecule `OCC(O)CC(F)(F)C(F)(F)C(F)(F)C(F)(F)C(F)(F)C(F)(F)C(F)(F)C(F)(F)F` (centres undefined) [1-(Perfluorofluorooctyl)propane-2,3-diol] had a POD vs vehicle of 0.136 µM.

On to `CC(O)C(F)(F)C(F)(F)F` (centres undefined) [1-Pentafluoroethylethanol], for which the POD vs vehicle is greater than 100 µM.

In turn, `OCC(F)(F)C(F)(F)C(F)(F)C(F)F` [1H,1H,5H-Perfluoropentanol] gave a POD vs vehicle greater than 100 µM.

In turn, `O=S(=O)(OCC(F)(F)F)C(F)(F)C(F)(F)C(F)(F)C(F)(F)F` [2,2,2-Trifluoroethyl_perfluorobutanesulfonate] displayed a POD vs vehicle greater than 100 µM.

With `O=C(O)C(F)(F)C(F)(F)C(F)F` [2,2,3,3,4,4-Hexafluorobutanoic_acid], the POD vs vehicle was greater than 100 µM.

Regarding `NC(O)(C(F)(F)F)C(F)(F)F` [2-Aminohexafluoropropan-2-ol], the POD vs vehicle was greater than 100 µM.

In the case of `O=C(O)CCC(F)(F)C(F)(F)C(F)(F)C(F)(F)C(F)(F)F` [2H,2H,3H,3H-Perfluorooctanoic_acid], the POD vs vehicle is greater than 100 µM.

As for `O=C(O)C=C(C(F)(F)F)C(F)(F)F` [3,3-Bis(trifluoromethyl)-2-propenoic_acid], the POD vs vehicle was greater than 100 µM.

As for `O=C(O)C=CC(F)(C(F)(F)F)C(F)(F)F` [3-(Perfluoroisopropyl)-2-propenoic_acid], the POD vs vehicle is greater than 100 µM.

`O=C(O)CCC(F)(F)C(F)(F)C(F)(F)C(F)(F)C(F)(F)C(F)(F)C(F)(F)F` [3-Perfluoroheptylpropanoic_acid] showed a POD vs vehicle greater than 100 µM.

For `O=C(O)CCC(F)(F)C(F)(F)C(F)(F)F` [3:3 Fluorotelomer carboxylic acid], the POD vs vehicle is greater than 100 µM.

As to `O=C(CC(=O)C(F)(F)C(F)(F)F)C(F)(F)F` [3H,3H-Perfluoro-2,4-hexanedione], the POD vs vehicle was greater than 100 µM.

For `OCCC(F)(F)C(F)(F)C(F)(F)C(F)(F)F` [4:2 Fluorotelomer alcohol], the POD vs vehicle is greater than 100 µM.

In turn, `O=S(=O)(O)CCC(F)(F)C(F)(F)C(F)(F)C(F)(F)F` [4:2 Fluorotelomer sulfonic acid] came in with a POD vs vehicle greater than 100 µM.

For the molecule `O=C([O-])C(F)(F)C(F)(F)C(F)(F)C(F)(F)C(F)(F)C(F)(F)C(F)(F)F.[NH4+]` [Ammonium_perfluorooctanoate], the POD vs vehicle was greater than 100 µM.

In the case of `CN(CCO)S(=O)(=O)C(F)(F)C(F)(F)C(F)(F)C(F)(F)C(F)(F)C(F)(F)C(F)(F)C(F)(F)F` [N-Methyl-N-(2-hydroxyethyl)perfluorooctanesulfonamide], the POD vs vehicle is greater than 100 µM.

Molecule `O=S(=O)(O)C(F)(F)C(F)(F)C(F)(F)C(F)(F)F` [Perfluorobutanesulfonic_acid] had a POD vs vehicle greater than 100 µM.

`O=C(O)C(F)(F)C(F)(F)C(F)(F)C(F)(F)C(F)(F)C(F)(F)C(F)(F)C(F)(F)C(F)(F)C(F)(F)F` [Perfluoroundecanoic_acid] showed a POD vs vehicle greater than 100 µM.

These data come from the supplement of paper PMC11368000.
